According to ChEMBL document CHEMBL1201862, “PubChem BioAssay data set” (2004):
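Each compound was tested at five concentrations against cells in 96-well plates for 48 hours. GI50 is the concentration that inhibits growth by half.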 The source made the active and inactive calls. Cut-off read from the data, not from the text of the source: active = GI50 up to about 1.1 µM and inactive = higher.

Columns and labels:
Test in all cases: inhibition of tumour cell growth, NCI panel, 48 h
EKVX = test system: EKVX
MOLT-4 = test system: MOLT-4
SNB-19 = test system: SNB-19
NCI-H522 = test system: NCI-H522
TK-10 = test system: TK-10
MCF7 = test system: MCF7
HOP-62 = test system: HOP-62
M14 = test system: M14
NCI-H226 = test system: NCI-H226
NCI-H23 = test system: NCI-H23
COLO 205 = test system: COLO 205
IGROV-1 = test system: IGROV-1
SF-539 = test system: SF-539
Hs-578T = test system: Hs-578T
SK-OV-3 = test system: SK-OV-3
SK-MEL-2 = test system: SK-MEL-2
SF-268 = test system: SF-268
Malme-3M = test system: Malme-3M
RPMI-8226 = test system: RPMI-8226
OVCAR-3 = test system: OVCAR-3
SW-620 = test system: SW-620
HOP-92 = test system: HOP-92
A549 = test system: A549
CCRF-CEM = test system: CCRF-CEM
ACHN = test system: ACHN
HCT-116 = test system: HCT-116
HCT-15 = test system: HCT-15
LOX IMVI = test system: LOX IMVI
SR = test system: SR
BT-549 = test system: BT-549
OVCAR-5 = test system: OVCAR-5
SNB-75 = test system: SNB-75
UO-31 = test system: UO-31
OVCAR-8 = test system: OVCAR-8
K562 = test system: K562
SF-295 = test system: SF-295
HL-60 = test system: HL-60
SK-MEL-5 = test system: SK-MEL-5
UACC-62 = test system: UACC-62
786-0 = test system: 786-0
HT-29 = test system: HT-29
RXF 393 = test system: RXF 393
OVCAR-4 = test system: OVCAR-4
MDA-MB-435 = test system: MDA-MB-435
MDA-N = test system: MDA-N
UACC-257 = test system: UACC-257
NCI/ADR-RES = test system: NCI/ADR-RES
SN12C = test system: SN12C
KM12 = test system: KM12
MDA-MB-231 = test system: MDA-MB-231
A498 = test system: A498
HCC 2998 = test system: HCC 2998
DU-145 = test system: DU-145
T47D = test system: T47D
CAKI-1 = test system: CAKI-1

## Cc1ccc(Nc2nc(=O)[nH]c(=O)[nH]2)cc1N=[N+]=[N-]
EKVX
  GI50: > 100 µM (inactive)
MOLT-4
  GI50: > 100 µM (inactive)
SNB-19
  GI50: > 100 µM (inactive)
NCI-H522
  GI50: > 100 µM (inactive)
TK-10
  GI50: > 100 µM (inactive)
MCF7
  GI50: > 100 µM (inactive)
HOP-62
  GI50: > 100 µM (inactive)
M14
  GI50: > 100 µM (inactive)
NCI-H226
  GI50: > 100 µM (inactive)
NCI-H23
  GI50: > 100 µM (inactive)
COLO 205
  GI50: > 100 µM (inactive)
IGROV-1
  GI50: > 100 µM (inactive)
SF-539
  GI50: > 100 µM (inactive)
Hs-578T
  GI50: > 100 µM (inactive)
SK-OV-3
  GI50: > 100 µM (inactive)
SK-MEL-2
  GI50: > 100 µM (inactive)
SF-268
  GI50: > 100 µM (inactive)
Malme-3M
  GI50: > 100 µM (inactive)
RPMI-8226
  GI50: > 100 µM (inactive)
OVCAR-3
  GI50: > 100 µM (inactive)
SW-620
  GI50: > 100 µM (inactive)
HOP-92
  GI50: > 100 µM (inactive)
A549
  GI50: > 100 µM (inactive)
CCRF-CEM
  GI50: > 100 µM (inactive)
ACHN
  GI50: > 100 µM (inactive)
HCT-116
  GI50: > 100 µM (inactive)
HCT-15
  GI50: > 100 µM
LOX IMVI
  GI50: > 100 µM (inactive)
SR
  GI50: > 100 µM (inactive)
BT-549
  GI50: > 100 µM (inactive)
OVCAR-5
  GI50: > 100 µM (inactive)
SNB-75
  GI50: > 100 µM (inactive)
UO-31
  GI50: > 100 µM (inactive)
OVCAR-8
  GI50: > 100 µM (inactive)
K562
  GI50: > 100 µM (inactive)
SF-295
  GI50: > 100 µM (inactive)
HL-60
  GI50: > 100 µM (inactive)
SK-MEL-5
  GI50: > 100 µM (inactive)
UACC-62
  GI50: > 100 µM (inactive)
786-0
  GI50: > 100 µM (inactive)
HT-29
  GI50: > 100 µM (inactive)
RXF 393
  GI50: > 100 µM (inactive)
OVCAR-4
  GI50: > 100 µM (inactive)
MDA-MB-435
  GI50: > 100 µM (inactive)
MDA-N
  GI50: > 100 µM (inactive)
UACC-257
  GI50: > 100 µM (inactive)
NCI/ADR-RES
  GI50: > 100 µM (inactive)
SN12C
  GI50: > 100 µM (inactive)
KM12
  GI50: > 100 µM (inactive)
MDA-MB-231
  GI50: > 100 µM (inactive)
A498
  GI50: > 100 µM (inactive)
HCC 2998
  GI50: > 100 µM (inactive)
DU-145
  GI50: > 100 µM (inactive)
T47D
  GI50: > 100 µM (inactive)
CAKI-1
  GI50: > 100 µM (inactive)
